Patent publication US9636324B2, “Use of 15-benzylidence-14-deoxy-11, 12 -dehyroandrographolide derivative in manufacture of medicaments for protecting liver and anti-hepatitis C virus” (Zhengzhou University, priority 2012, dated 2017)

Experiments:
[1] = system: bovine viral diarrhea virus (BVDV-AV69); assay: CPE observation of effects on cytopathy caused by BVDV in MDBK cells
Method: Pharmaceutical effects of drugs of the invention against cytopathy caused by inoculation of BVDV virus are investigated using MDBK (NBL-1) cells (purchased from Chinese Academy of Science's Shanghai Center for Type Culture Collection) and bovine viral diarrhea virus (BVDV-AV69) (purchased from China Institute of Veterinary Drugs Control). Ribavirin (R; Henan RunHong Pharmaceutical Co., Ltd; batch number: E0909604) is used as positive drug control. MDBK cells are prepared as a suspension (1×10^5/mL) in RPMI1640 culture medium which contains 10% in volume fetal bovine serum (Zhejiang Tianhang Biotechnology Co., Ltd; batch number: 100524), 100 μg/mL streptomycin (Shenzheng Huayao Nanfang Pharmaceutical Co., Ltd; batch number: N09081), 100 U/mL penicillin (North China Pharmaceutical Co., Ltd; batch number: E0909604), and are seeded in 96 well plates (Costar, US) at 200 μL/well, placed in an incubator (Binder, Germany) at 37° C. with 5% CO2 to culture the cell. In 24 h when cells grow into a single layer, virus solution of 100 TCID50 (TCID50=10^−2.5) is added and incubated for 1.5 h. Maintenance medium with the drug is added at 200 μL/well after 3×PBS washes.
After digestion of MDBK cells with trypsin, cells with a concentration of 1×10^5/mL are seeded into 96 well plates at 200 μL/well, placed in an incubator at 37° C. with 5% CO2 for 24 h. After growing into a single layer, cells are attacked using 100 TCID50 (TCID50=10^−2.5) virus and incubated for 1.5 h. The virus-containing maintenance medium is discarded, and cells are washed with PBS, followed by addition of drug-containing maintenance medium with different concentrations, and incubation in 5% CO2 at 37° C. Normal cell control, virus control, drug treatment and ribavirin treatment groups are set. The cytopathy developing status is recorded everyday by observing under an inverted microscope.

[2] = system: mice with carbon tetrachloride induced liver damage; assay: Carbon tetrachloride induced chemical liver damage model in mice; type: in vivo, Kunming mice
Method: Kunming mice of clean grade (male, weight 20±2 g), after adaptively fed for 3 days, are randomly divided into normal group, model group, bifendate positive control group (200 mg/kg), AD group (0.88 mmol/kg), low dosage group (0.66 mmol/kg) and high dosage group (0.88 mmol/kg) of compound A, B, C and D, with 8 mice in each group. Positive group and each test group are intragastrically given with respective suspension prepared with 0.5% CMC-Na, and normal group and model group are given with 0.5% CMC-Na. The drugs are given for 3 days, and 1 h after the last administration, all mice except those in the normal group are intraperitoneally injected with a single dose of 0.3% carbon tetrachloride in peanut oil (0.1 mL/10 g). After 16 h, the eyeball of the mice in each group is enucleated to collect blood, which is centrifuged at 3000 rpm for 15 min to separate serum. ALT and AST activities are tested respectively (Nanjing Jiancheng Bioengineering Institute). The left lobe of liver is taken to prepare 10% homogenate using physiological saline, MDA (Nanjing Jiancheng Bioengineering Institute) and PGE2 contents are determined. Experimental data are expressed as average±standard deviation (X±s), analyzed with SPSS 11.5 statistic software, with P<0.05 meaning there is a significant difference. Other agents, drugs and experimental methods are the same as in EXAMPLE 1. In experimental investigation of both models, the following grouping method is used: Kunming mice of clean grade (male, weight 20±2 g) are randomly divided into normal group, model group, bifendate group (200 mg/kg), AD group (0.88 mmol/kg), low dosage group (0.66 mmol/kg) and high dosage group (0.88 mmol/kg) of compound E, with 8 mice in each group. Other agents, drugs and experimental methods are the same as in EXAMPLE 1 and in EXAMPLE 4, respectively.

[3] = system: mice with ethanol induced liver damage; assay: Ethanol induced liver damage model in mice; type: in vivo, Kunming mice
Method: Kunming mice of clean grade (male, weight 20±2 g), after adaptively fed for 3 days, are randomly divided into normal group, model group, bifendate positive control group (200 mg/kg), AD group (0.88 mmol/kg), low (0.44 mmol/kg), median (0.66 mmol/kg) and high (0.88 mmol/kg) dosage groups of compound A, and median (0.66 mmol/kg) and high (0.88 mmol/kg) dosage groups of compound B, with 8 mice in each group. Positive group and each test group are intragastrically given with respective suspension prepared with 0.5% CMC-Na, and normal group and model group are given with 0.5% CMC-Na. The drugs are given for 3 days, and 1 h after the last administration, all mice except those in the normal group are intragastrically administrated with a single dose of 50% EtOH ([…]). After 16 h, the eyeball of the mice in each group is enucleated to collect blood, which is centrifuged at 3000 rpm for 15 min to separate serum. ALT and AST activities are tested respectively (Nanjing Jiancheng Bioengineering Institute). The left lobe of liver is taken to prepare 10% homogenate using physiological saline, MDA (Nanjing Jiancheng Bioengineering Institute) content is determined. Experimental data are expressed as average±standard deviation (X±s), analyzed with SPSS 11.5 statistic software, with P<0.05 meaning there is a significant difference. Other agents, drugs and experimental methods are the same as in EXAMPLE 1.

[4] = system: MDBK (NBL-1) cells; assay: MTT assay for cytotoxicity; type: cell-based, bovine; conditions: 0-7.5 μmol/L, 48 h
Method: The drug-containing medium is added and further incubated for 48 h. MTT is added (5 mg/mL) at 20 μL/well and cultured for 4 h, the supernatant is discarded and 150 μL DMSO is added, then the plate is shaken for 10 minutes and the absorbance is determined using a microplate reader using the wavelength 570 nm and a reference wavelength 450 nm. The cell survival rate is calculated after treatment of compounds: cell survival rate (%)=drug group A value/cell control group A value×100%, and the results are shown in FIG. 10. Cell proliferation inhibition rate (%)=100%−survival rate (%), half maximal (50%) toxic concentration (TC50) is calculated according to Reed-Muench method.

[5] = dosage groups not distinguished (0.66 and 0.88 mmol/kg), P<0.01
[6] = dosage groups not distinguished, P<0.01
[7] = high dosage 0.88 mmol/kg vs AD 0.88 mmol/kg, P<0.05
[8] = high dosage 0.88 mmol/kg, P<0.05
[9] = low dosage 0.66 mmol/kg vs AD 0.88 mmol/kg, P<0.05

For `C=C1CCC2C(C)(CO)C(O)CCC2(C)C1C=CC1=CC(=Cc2ccc(Cl)cc2)OC1=O` (stereo not shown) [Compound A], the “antiviral effect compared with AD” value ([1]; BVDV in MDBK cells) was “better antiviral effect than AD”, the “pharmaceutical effect against cytopathy caused by virus compared with ribavirin” value ([1]; BVDV in MDBK cells) was “better than ribavirin” and the “TI value (therapy index, TC50/IC50)” value ([1]; MDBK cells, BVDV-AV69, TC50 from MTT, IC50 from CPE) was greater than 127.6. The “ALT activity in serum vs model group” value [2, 5] was “notably suppress the increase”, the “AST activity in serum vs model group” value [2, 5] was “notably suppress the increase” and the “MDA level in liver homogenate vs model group” value [2, 6] was “effectively reduce”. The “PGE2 level in liver homogenate vs model group” value [2, 6] was “effectively reduce”, the “magnitude of decrease in ALT activity compared to AD group” value [2, 7] was “significantly better” and the “magnitude of decrease in AST activity compared to AD group” value [2, 7] was “significantly better”. For the same compound, the “PGE2 content compared to AD group” value [2, 8] was “notably lower”, the “ability to reduce lipid peroxide level in liver homogenate compared to AD group” value [2, 8] was “stronger ability to reduce the lipid peroxide level” and the “magnitude of decrease in ALT activity compared to AD group” value [2, 9] was “significantly better”. For the same compound, the “magnitude of decrease in AST activity compared to AD group” value [2, 9] was “significantly better”, the “ability to reduce lipid peroxide level in liver homogenate compared to AD group” value ([2]; low dosage 0.66 mmol/kg, P<0.05) was “stronger ability to reduce the lipid peroxide level” and the “protective effect against liver damage induced by carbon tetrachloride (summary)” value ([2]; mice, intragastric, 3 days) was “protective effect”. For the same compound, the “ALT activity in serum vs model group” value [3, 6] was “effectively suppress”, the “AST activity in serum vs model group” value [3, 6] was “effectively suppress” and the “MDA content in liver homogenate vs model group” value [3, 6] was “effectively reduce the MDA content”. The “AST activity decreasing magnitude compared with AD group” value ([3]; high dosage 0.88 mmol/kg, P<0.01) was “notably larger”, the “ALT activity decreasing magnitude compared with AD group” value ([3]; high dosage 0.88 mmol/kg, P<0.01 (A), P<0.05 (B)) was “notably larger” and the “protective effect against liver damage induced by ethanol (summary)” value ([3]; mice, intragastric, 3 days) was “protective effect”. The “cytotoxicity to MDBK cells” value [4] was “do not show obvious cytotoxcity”.
